{"source": "patent US20220119777A1", "about": "“CHEMILUMINESCENCE PHOTODYNAMIC VIRUS INACTIVATION OF RED BLOOD CELLS” (priority 2020, published 2022)", "test_system": "bovine viral diarrhea virus (BVDV)", "experiment": "Hypericin-Luciferase inactivation of BVDV spiked into human red blood cell concentrate, TCID50 titration (CPE)", "assay_type": "cell-based", "details": "for Unwashed Titer / Unwashed VRF / Washed Titer / Combined VRF / Washed VRF: no luciferase system; for Unwashed Titer: RT 2 h dark; for Unwashed VRF / Washed VRF: vs RBC control; for Combined VRF: washed sample vs unwashed RBC control", "protocol": "Ten different combinations of Dulbecco's modified eagle medium without calcium and magnesium (DMEM (—Ca++, —Mg++)), RBCC, virus, hypericin, luciferin, ATP and luciferase were prepared to all contain equivalent titers of BVDV calculated to be 6.48 log 10TCID50/mL based on the titer of the original virus stock. The concentrations of hypericin tested were 0, 40 and 200 μg/mL. Luciferase was tested at 0, 0.8 and 4.0 μM. Luciferin and ATP were present at 80 and 800 μM respectively when luciferase was present and absent in the absence of luciferase.\nThe components were mixed and incubated at room temperature (RT) for 2 hours in the dark followed by titration of unwashed and washed samples as previously described. Washing rows of wells with dilutions 1 and 2 was performed 3 days post-infection. Final cytopathic effects (CPEs) were read 10 days post-infection.\n(§1) Eleven different combinations of DMEM (—Ca++, —Mg++), RBCC, virus, hypericin, luciferin, adenosine triphosphate (ATP) and luciferase were prepared to all contain equivalent titers of BVDV calculated to be 6.48 log 10TCID50/mL (logs) based on the titer of the original virus stock. The concentrations of hypericin tested were 10, 20 and 40 μg/mL. Luciferase was tested at 0.16, 0.32 and 0.8 μM. Luciferin and ATP were present at 80 and 800 μM, respectively.\nThe components were mixed and incubated at RT for 2 hours in the dark followed by titration of unwashed and washed samples as previously described. Washing of rows of wells with dilutions 1 and 2 was performed […] post-infection. Final CPE were read 10 days post-infection.\nas §1, with “Ten” for “Eleven”, “log10 TCID50/mL” for “log 10TCID50/mL”, “40, 80” for “10, 20”, “120” for “40”\nThe compounds were mixed and incubated at RT for 2 hours in the dark followed by titration of unwashed and washed samples as previously described. Washing rows of wells with dilutions 1 and 2 was performed 2 days post-infection. Final CPEs were read 10 days post-infection.", "key": {"[1]": {"details": "Ex 1 HH-LN: hypericin 200 μg/mL"}, "[2]": {"details": "Ex 1 HH-LN: hypericin 200 μg/mL, washed"}, "[3]": {"details": "Ex 1 HL-LN: hypericin 40 μg/mL, washed"}}, "data": [{"smiles": "Cc1cc(O)c2c(=O)c3c(O)cc(O)c4c5c(O)cc(O)c6c(=O)c7c(O)cc(C)c8c1c2c(c34)c(c78)c65", "note": "[Hypericin, hypericin]", "values": [{"measurement": "Unwashed Titer", "setting": "[1]", "value": 3.10, "unit": "log10TCID50/mL"}, {"measurement": "Unwashed VRF", "setting": "[1]", "value": 3.25, "unit": "log TCID50"}, {"measurement": "Washed Titer", "setting": "[2]", "value": 2.48, "unit": "log10TCID50/mL"}, {"measurement": "Combined VRF", "setting": "[1]", "value": 3.87, "unit": "log TCID50"}, {"measurement": "Washed VRF", "setting": "[2]", "value": 1.50, "unit": "log TCID50"}, {"measurement": "Unwashed Titer", "setting": "Ex 1 HL-LN: hypericin 40 μg/mL", "value": 3.48, "unit": "log10TCID50/mL"}, {"measurement": "Unwashed VRF", "setting": "Ex 1 HL-LN: hypericin 40 μg/mL", "value": 2.87, "unit": "log TCID50"}, {"measurement": "Washed Titer", "setting": "[3]", "value": "<2.34", "unit": "log10TCID50/mL"}, {"measurement": "Combined VRF", "setting": "Ex 1 HL-LN: hypericin 40 μg/mL", "value": ">4.01", "unit": "log TCID50"}, {"measurement": "Washed VRF", "setting": "[3]", "value": ">1.64", "unit": "log TCID50"}, {"measurement": "VRFs, unwashed samples", "setting": "Example 1, all hypericin treated unwashed samples, low (40 μg/mL) and high (200 μg/mL) doses", "value": "~3", "unit": "logs"}, {"measurement": "combined VRFs", "setting": "Example 3, hypericin 40 μg/mL, all levels of luciferase, washed", "value": "> 3.51", "unit": "logs"}, {"measurement": "VRF, washed samples", "setting": "Example 3, hypericin dose of 40 μg/mL, all levels of luciferase, washed, complete inactivation/elimination", "value": "> 1.14", "unit": "logs"}, {"measurement": "optimal dose of hypericin for BVDV", "setting": "summary of Examples 1-3, with different doses of luciferase", "value": 40, "unit": "µg/mL"}]}]}
